Source: ChEMBL document CHEMBL4483862, “Open-source discovery of chemical leads for next-generation chemoprotective antimalarials” (2018)

System: Plasmodium berghei
Experiment: Luciferase/luciferin-expressing antifolate-resistant parasites were used to infect a culture of HepG2 cells that were pre-incubated with compounds. Infected hepatocytes emit light due to the luciferase reaction. Assay results are presented as the percent inhibition of light emission compared to control. […]
Format: functional
Details: sporozoite; for IC90: read-out: LUCIFERASE INFECTION ASSAY - IC90
[1] = read-out: LUCIFERASE INFECTION ASSAY - IC50

Row | Compound | IC90 | other results
1 | c1ccc(Oc2ccccc2-c2cnc3c(NCCc4cccnc4)nccn23)cc1 | 7.62 µM | IC50 (HEPG2TOX_HILL_SLOPE 47.6, HEPG2TOX_R_SQUARED 0.873, PBLUC_HILL_SLOPE 7.25, PBLUC_R_SQUARED 0.536, read-out: LUCIFERASE INFECTION ASSAY - IC50): 5.63 µM
2 | COc1ccc(-c2nnc(SCn3nnc4ccccc4c3=O)n2-c2ccccc2C(C)C)cc1 | > 10 µM | IC50 (FFLUC_HILL_SLOPE 2.15, FFLUC_R_SQUARED 0.39, read-out: LUCIFERASE INFECTION ASSAY - IC50): > 10 µM
3 | CSc1sc(-c2ccon2)c(-c2ccccc2)c1C#N | > 11.1 µM | IC50 [1]: > 11.1 µM
4 | O=C(CSc1nncn1C1CC1)Nc1sc2c(c1C(=O)Nc1ccc(Cl)cc1)CCCC2 | > 10 µM | IC50 [1]: > 10 µM
5 | C/C(=N\NC(=S)NC(C)(C)C)c1cc(F)cc(F)c1O | 10.5 µM | IC50 (HEPG2TOX_HILL_SLOPE 8.26, HEPG2TOX_R_SQUARED 0.458, PBLUC_HILL_SLOPE 21.3, PBLUC_R_SQUARED 0.177, read-out: LUCIFERASE INFECTION ASSAY - IC50): 9.5 µM
6 | Clc1ccc2c(NCc3ccccc3)ccnc2c1 | 4.19 µM | IC50 (PBLUC_HILL_SLOPE 8.08, PBLUC_R_SQUARED 0.339, read-out: LUCIFERASE INFECTION ASSAY - IC50): 3.19 µM
7 | Cc1cccc(C(=O)N[C@H](C(=O)Nc2nc(-c3ccccn3)cs2)C(C)C)c1 | 3.94 µM | IC50 (HEPG2TOX_HILL_SLOPE 1.86, HEPG2TOX_R_SQUARED 0.615, PBLUC_HILL_SLOPE 3.31, PBLUC_R_SQUARED 0.556, read-out: LUCIFERASE INFECTION ASSAY - IC50): 2.03 µM
8 | CCCNC(=O)COC(=O)c1cc(Br)ccc1N | > 10 µM | IC50 [1]: > 10 µM
9 | COc1ccc(-c2nc(NC(=O)c3ccc(-n4cccn4)nc3)sc2C)cc1 | > 10 µM | IC50 [1]: > 10 µM
10 | CCOC(=O)c1c(N)sc(Cc2sc(N)c(C(=O)OCC)c2-c2ccccc2)c1-c1ccccc1 | 5.92 µM | IC50 (FFLUC_HILL_SLOPE 10.1, FFLUC_R_SQUARED 0.631, HEPG2TOX_HILL_SLOPE 3.62, HEPG2TOX_R_SQUARED 0.944, PBLUC_HILL_SLOPE 88.7, PBLUC_R_SQUARED 0.482, read-out: LUCIFERASE INFECTION ASSAY - IC50): 5.77 µM
11 | CCCCNC(=O)Nc1nc(-c2ccccc2)cn1/N=C/c1ccccc1 | > 10 µM | IC50 (HEPG2TOX_HILL_SLOPE 8.27, HEPG2TOX_R_SQUARED 0.417, read-out: LUCIFERASE INFECTION ASSAY - IC50): > 10 µM
12 | Fc1cccc(NC(=S)NC2CCCCCCCCCCC2)c1 | 4.49 µM | IC50 (HEPG2TOX_HILL_SLOPE 19.2, HEPG2TOX_R_SQUARED 0.924, PBLUC_HILL_SLOPE 9.11, PBLUC_R_SQUARED 0.436, read-out: LUCIFERASE INFECTION ASSAY - IC50): 3.53 µM
13 | CCN(CC)c1ccc(S(=O)(=O)N2CCCCC2)cc1NC(=O)c1ccc2c(c1)nnn2CC | > 10 µM | IC50 (FFLUC_HILL_SLOPE 1.06, FFLUC_R_SQUARED 0.385, read-out: LUCIFERASE INFECTION ASSAY - IC50): > 10 µM
14 | CN(C)c1cccc(CNc2nccc3nc(-c4cccc(F)c4)[nH]c23)c1 | 5.76 µM | IC50 (HEPG2TOX_HILL_SLOPE 3.96, HEPG2TOX_R_SQUARED 0.788, PBLUC_HILL_SLOPE 4.1, PBLUC_R_SQUARED 0.415, read-out: LUCIFERASE INFECTION ASSAY - IC50): 3.37 µM
15 | COCCNC(=S)NNc1ccc2ccccc2c1 | 1.19 µM | IC50 (HEPG2TOX_HILL_SLOPE 2.26, HEPG2TOX_R_SQUARED 0.95, PBLUC_HILL_SLOPE 42.9, PBLUC_R_SQUARED 0.446, read-out: LUCIFERASE INFECTION ASSAY - IC50): 1.13 µM
16 | CCCCN(CC(=O)N1CCCC(c2nc3ccccc3s2)C1)Cc1nc(=O)c2ccccc2[nH]1 (stereo unspecified) | > 10 µM | IC50 (PBLUC_HILL_SLOPE 3.32, PBLUC_R_SQUARED 0.747, read-out: LUCIFERASE INFECTION ASSAY - IC50): 6.35 µM
17 | Cn1cc(C(=O)c2ccccc2O)cc1-c1nc2ccccc2[nH]1 | 4.94 µM | IC50 (HEPG2TOX_HILL_SLOPE 8.08, HEPG2TOX_R_SQUARED 0.741, PBLUC_HILL_SLOPE 7.01, PBLUC_R_SQUARED 0.754, read-out: LUCIFERASE INFECTION ASSAY - IC50): 3.61 µM
18 | Cc1noc(C)c1CSc1ccccc1C(=O)NNC(=O)c1ccc2ccccc2n1 | 6.77 µM | IC50 (HEPG2TOX_HILL_SLOPE 3.33, HEPG2TOX_R_SQUARED 0.906, PBLUC_HILL_SLOPE 141, PBLUC_R_SQUARED 0.0106, read-out: LUCIFERASE INFECTION ASSAY - IC50): 6.66 µM
19 | O=C(Nc1ccc(N2CCOCC2)cn1)c1ccccc1 | > 10 µM | 
20 | O=C(Nc1ccnn1Cc1ccccc1)c1ccc(C(=O)c2ccccc2)cc1 | > 10 µM | IC50 (PBLUC_HILL_SLOPE 1.71, PBLUC_R_SQUARED 0.158, read-out: LUCIFERASE INFECTION ASSAY - IC50): 5.74 µM
21 | Cc1sc2ncn(CC(=O)NC(c3ccc(F)cc3)c3cccs3)c(=O)c2c1-c1ccccc1 (stereo unspecified) | 9.83 µM | IC50 (FFLUC_HILL_SLOPE 15.7, FFLUC_R_SQUARED 0.526, PBLUC_HILL_SLOPE 17, PBLUC_R_SQUARED 0.112, read-out: LUCIFERASE INFECTION ASSAY - IC50): 8.64 µM

Row | Compound | IC90 | other results
22 | CCCOc1c(Cl)cc(C(=O)N2CCN(C)c3nc4ccccc4nc32)cc1OCC | > 10 µM | IC50 [1]: > 10 µM
23 | O=C(CSc1ccc(C(F)(F)F)cn1)Nc1cc(C(F)(F)F)cc(C(F)(F)F)c1 | > 7.36 µM | IC50 [1]: > 7.36 µM
24 | Clc1ccc(-c2cn3c(-c4ccccc4)cnc3cn2)c(Cl)c1 | 3.69 µM | IC50 (HEPG2TOX_HILL_SLOPE 1.88, HEPG2TOX_R_SQUARED 0.996, PBLUC_HILL_SLOPE 1.95, PBLUC_R_SQUARED 0.542, read-out: LUCIFERASE INFECTION ASSAY - IC50): 1.19 µM
25 | CC(C)(C)CNC(=S)N/N=C/c1cc(Cl)cc(Cl)c1O | > 9.87 µM | IC50 (HEPG2TOX_HILL_SLOPE 2.41, HEPG2TOX_R_SQUARED 0.728, PBLUC_HILL_SLOPE 9.45, PBLUC_R_SQUARED 0.267, read-out: LUCIFERASE INFECTION ASSAY - IC50): 9.07 µM
26 | Cc1cc(C)c(NC(=O)C(=O)NC(C)C)c(C)c1 | 11 µM | IC50 (PBLUC_HILL_SLOPE 3.55, PBLUC_R_SQUARED 0.214, read-out: LUCIFERASE INFECTION ASSAY - IC50): 5.93 µM
27 | COc1ccc(-c2n[nH]c(SC(C(=O)Nc3cc(Cl)cc(Cl)c3)c3ccccc3)nc2=O)cc1 (stereo unspecified) | 3.75 µM | IC50 (FFLUC_HILL_SLOPE 1.9, FFLUC_R_SQUARED 0.863, HEPG2TOX_HILL_SLOPE 8.67, HEPG2TOX_R_SQUARED 0.533, PBLUC_HILL_SLOPE 16.2, PBLUC_R_SQUARED 0.618, read-out: LUCIFERASE INFECTION ASSAY - IC50): 3.27 µM
28 | CC(=O)Nc1cccc(-c2cn3c(-c4ccc(Cl)cc4)cnc3cn2)c1 | 3.69 µM | IC50 (PBLUC_HILL_SLOPE 3.14, PBLUC_R_SQUARED 0.81, read-out: LUCIFERASE INFECTION ASSAY - IC50): 1.83 µM
29 | COC(=O)c1c(NC(=O)c2ccoc2)c2cc(NC(C)CC(F)(F)F)cnc2n1CC(C)C (stereo unspecified) | > 7.07 µM | IC50 [1]: > 7.07 µM
30 | CC(C)Oc1ccc(Nc2cc3c(cn2)cc(-c2cccc(C(F)(F)F)c2)n3C)cc1 | 5.18 µM | IC50 (PBLUC_HILL_SLOPE 8.74, PBLUC_R_SQUARED 0.3, read-out: LUCIFERASE INFECTION ASSAY - IC50): 4.03 µM
31 | Cc1cc(C(=O)NC2CC2)c(C)n1-c1ccc(C(C)C)cc1 | > 10 µM | IC50 (PBLUC_HILL_SLOPE 2.98, PBLUC_R_SQUARED 0.567, read-out: LUCIFERASE INFECTION ASSAY - IC50): 6.28 µM
32 | Cn1nnnc1Sc1ncnc2sc3c(c12)CCCC3 | > 10 µM | IC50 [1]: > 10 µM
33 | CCC(C)(C)C1CCC(NC(=O)N(C)CC(=O)Nc2c(C)cccc2C)CC1 (stereo unspecified) | > 10 µM | IC50 [1]: > 10 µM
34 | COc1ccc(C(=O)Nc2ccccc2-c2nc3ccccc3[nH]2)cc1S(=O)(=O)N1CCCC1 | > 10 µM | IC50 (PBLUC_HILL_SLOPE 15.4, PBLUC_R_SQUARED 0.501, read-out: LUCIFERASE INFECTION ASSAY - IC50): 8.92 µM
35 | CC(C)c1cccc(-c2ccc3nnc(-c4cccc(Cl)c4)n3c2)c1 | > 10 µM | IC50 (PBLUC_HILL_SLOPE 4.48, PBLUC_R_SQUARED 0.207, read-out: LUCIFERASE INFECTION ASSAY - IC50): 6.48 µM
36 | COc1cc(C#N)ccc1Oc1ccnc2cc(Cl)ccc12 | > 10 µM | IC50 (HEPG2TOX_HILL_SLOPE 2.16, HEPG2TOX_R_SQUARED 0.625, PBLUC_HILL_SLOPE 9.16, PBLUC_R_SQUARED 0.449, read-out: LUCIFERASE INFECTION ASSAY - IC50): 8.55 µM
37 | CCNC(=O)COc1ccc(/C=C/C(=O)c2ccc(N3CCCCC3)cc2)cc1OC | > 10 µM | IC50 (HEPG2TOX_HILL_SLOPE 9.05, HEPG2TOX_R_SQUARED 0.908, PBLUC_HILL_SLOPE 2.57, PBLUC_R_SQUARED 0.344, read-out: LUCIFERASE INFECTION ASSAY - IC50): 5.12 µM
38 | Cc1cc(NC(=O)CCc2ccc(C)c(Cl)c2)n(C)n1 | > 10 µM | IC50 [1]: > 10 µM
39 | O=C(c1ccco1)N1CCN(c2ncnc3c2[nH]c2ccc(F)cc23)CC1 | > 9.03 µM | IC50 (HEPG2TOX_HILL_SLOPE 1.18, HEPG2TOX_R_SQUARED 0.668, PBLUC_HILL_SLOPE 1.45, PBLUC_R_SQUARED 0.295, read-out: LUCIFERASE INFECTION ASSAY - IC50): > 9.03 µM
40 | CCOc1cc(C(=O)N/N=C/c2c(C)[nH]c3ccccc23)cc(OCC)c1OCC | > 10 µM | IC50 (HEPG2TOX_HILL_SLOPE 8.54, 2.60, HEPG2TOX_R_SQUARED 0.0840, 0.979, PBLUC_HILL_SLOPE 9.58, PBLUC_R_SQUARED 0.194, read-out: LUCIFERASE INFECTION ASSAY - IC50): 9.1 µM
41 | COc1ccccc1-n1c(SCc2cc(=O)oc3c(C)c(C)ccc23)nc2ccccc2c1=O | > 10 µM | IC50 [1]: > 10 µM
